Measured values as given in publication PMC8217170, “Phase Ib dose-escalation study of the hypoxia-modifier Myo-inositol trispyrophosphate in patients with hepatopancreatobiliary tumors” (Nature Communications, 2021).

Assay: Phase Ib dose escalation: safety and tolerability (CTCAE v4.03), MTD
Format: in vivo, human
Parameters: key to Hypercalcemia, CTCAE-Grade / Hypophosphatemia, CTCAE-Grade / Cholestasis, CTCAE-Grade / Nausea, CTCAE-Grade / Hypertension, CTCAE-Grade / Upper respiratory tract infection, CTCAE-Grade / Hyponatremia, CTCAE-Grade / Hypomagnesemia, CTCAE-Grade / Ascites & death due to rapid progression of malignancy, CTCAE-Grade / Hypokalemia, CTCAE-Grade / Pyrexia, CTCAE-Grade / Hyperphosphatemia, CTCAE-Grade / AV Block 1°, CTCAE-Grade / Palpations, CTCAE-Grade: 1 is the mildest form of the specific symptom; 5 is death
Conditions: for Hypercalcemia, CTCAE-Grade: relationship to IMP: Definitively
Text: This first-in-patient investigator-initiated phase Ib dose-escalation study followed a 3 + 3 dose-escalation scheme with a planned maximal inclusion of 48 participants allocated to eight cohorts of increasing doses. Outcomes were safety, tolerability, pharmacokinetics, and preliminary efficacy of ITPP with participants in this exploratory, prospective, open-label and unblinded, unrandomized, single-center investigation being enrolled at the University Hospital Zurich (USZ), Switzerland. Written informed consent was obtained of all participants before study inclusion after a time of consideration of at least 24 h. Written consent included the reporting and publication of individual, anonymized patient data. The study adhered to the principles of the Declaration of Helsinki, current good clinical practice guidelines and all ethical regulations. The study protocol was approved by the responsible independent ethics committee of Zurich (KEK-ZH-Nr. 2014-0374) and the national regulatory authority Swissmedic (2015DR1009) and is provided in the Supplementary Note 1. The study setup was published before inclusion start[55] and the trial first registered at ClinicalTrials.gov (NCT02528526) on 11/11/2014. After 6 sequential reviews requiring minor editorial changes, final registration at ClinicalTrials.gov was obtained on the 08/18/2015. The first patient was included in the study 04/13/2015, with treatment started on the 04/27/2015. 4 patients were included in the trial before final registration at ClinicalTrials.gov (04/13/2015–07/20/2015). The last patient was included on the 06/12/2018, treatment started on the 06/18/2018 and the last treatment administered on 07/06/2018. Data cut-off for the study was the 12/31/2018. The manuscript was written in compliance with ICMJE guidelines.
Primary objectives were (i) assessment of the safety and tolerability of increasing doses of ITPP, and (ii) establishment of the MTD (primary endpoint) according to the dose escalation schema. The primary outcome was measured by collection of adverse effects information according to Common Terminology Criteria for Adverse Events (CTCAE, US National Cancer Institute, version 4.03). Safety objectives and outcomes were identical with the primary endpoint.
The study drug (brand name: OXY111A) was intravenously administered in 9 infusions, each lasting 8 h, over 3 weeks in an outpatient setting at the Phase 1 unit of the USZ Clinical Trials Center. Due to its anionic properties, ITPP acts a potent chelator of calcium. Therefore, administration with CaCl2 (Baxter) at a 1:0.75 molar ratio has been determined to prevent hypocalcaemia. Respective doses were calculated based on body surface area (DuBois/DuBois formula). Cohort 1 started at weekly doses of 5600 mg/m^2 weekly, equal to the maximal weekly dose tested in healthy volunteers (unpublished data from Normoxys®). Dose escalation was performed according to the predefined scheme (Fig. 1a, Supplementary Note 1: page 6) up to a maximum weekly dose of 43,700 mg/m^2. During infusion days, participants had continuous monitoring of vital signs and daily 12-electrode electrocardiograms. Electrolytes measurements and venous blood gas analyses were performed three-hourly, while complete blood count, coagulation and routine kidney/liver parameters were assessed twice daily.
Severity of encountered AE was assessed following the CTCAE guidelines. Serious AE were defined as events being life-threatening, necessitating hospitalization, resulting in death or birth defects. DLT was defined as any AE ≥ grade 3 and sTET as any grade 2 AE considered to be definitely, probably or possibly related to ITPP. […] MTD was defined as the dose preceding the level at which 1 patient experienced a DLT or ≥3 patients experienced a sTET (Supplementary Note 1: page 6). The window for DLT/sTET/MTD assessment was from first dose of ITPP until first dose of chemotherapy or 10d following the last ITPP infusion. […]

[1] = cohort 4, AE, relationship to IMP: Possibly
[2] = cohort 4, AE, relationship to IMP: Unrelated
[3] = cohort 4, SAE, relationship to IMP: Unrelated
[4] = cohort 5, AE, relationship to IMP: Unlikely
[5] = cohort 7, AE, relationship to IMP: Unlikely
[6] = cohort 7, AE, relationship to IMP: Unrelated
[7] = cohort 8, AE, relationship to IMP: Possibly

## O=P1(O)OC2C3OP(=O)(O)OP(=O)(O)OC3C3OP(=O)(O)OP(=O)(O)OC3C2OP(=O)(O)O1 (stereo not drawn) [ITPP, Myo-inositol trispyrophosphate]
Cohort 4, 7000 mg/m^2
  Icterus due to malignant obstruction (AE, not ITPP-related): 0
  Lower gastrointestinal bleeding (AE, not ITPP-related): 0
  Nausea & vomiting due to malignant infiltration of stomach (AE, not ITPP-related): 0
  Neutropenia (AE, not ITPP-related): 0
  Palpitations (AE, not ITPP-related): 0
  Pyrexia (AE, not ITPP-related): 0
Cohort 4, AE
  Hypercalcemia, CTCAE-Grade: 1
[1]
  Hypertension, CTCAE-Grade: 1
  Hypophosphatemia, CTCAE-Grade: 1
[2]
  Ascites, CTCAE-Grade: 3
  Nausea, CTCAE-Grade: 1
  Upper respiratory tract infection, CTCAE-Grade: 1
[3]
  Acute kidney injury grad 3, CTCAE-Grade: 3
  Hospitalisation due to fatigue/decreased state of health, CTCAE-Grade: 3
Cohort 5, 8750 mg/m^2
  AV Block 1° (AE, not ITPP-related): 0
  Acute kidney injury grade 3 (AE, not ITPP-related): 0
  Ascites due to oncological progress (AE, not ITPP-related): 0
  C. difficile enteritis (AE, not ITPP-related): 0
  Cholestasis (AE, not ITPP-related): 0
  Fatigue (AE, not ITPP-related): 0
  Hyperphosphatemia (TET): 0
  Hypertension (TET): 0
  Hypomagnesemia (TET): 0
  Hypophosphatemia (TET): 0
  Lower gastrointestinal bleeding (AE, not ITPP-related): 0
  Nausea & vomiting due to malignant infiltration of stomach (AE, not ITPP-related): 0
  Nausea (AE, not ITPP-related): 0
  Neutropenia (AE, not ITPP-related): 0
  Palpitations (AE, not ITPP-related): 0
  Pyrexia (AE, not ITPP-related): 0
  Upper respiratory tract infection (AE, not ITPP-related): 0
Cohort 5, AE
  Hypercalcemia, CTCAE-Grade: 1
[4]
  Hypokalemia, CTCAE-Grade: 2
  Hyponatremia, CTCAE-Grade: 1
  Icterus/Stenosis D. choledochus, CTCAE-Grade: 3
Cohort 6, 10,500 mg/m^2
  AV Block 1° (AE, not ITPP-related): 0
  Acute kidney injury grade 3 (AE, not ITPP-related): 0
  Ascites due to oncological progress (AE, not ITPP-related): 0
  C. difficile enteritis (AE, not ITPP-related): 0
  Cholestasis (AE, not ITPP-related): 0
  Fatigue (AE, not ITPP-related): 0
  Hyperphosphatemia (TET): 0
  Hypertension (TET): 0
  Hypokalemia (AE, not ITPP-related): 0
  Hyponatremia (AE, not ITPP-related): 0
  Hypophosphatemia (TET): 0
  Icterus due to malignant obstruction (AE, not ITPP-related): 0
  Lower gastrointestinal bleeding (AE, not ITPP-related): 0
  Nausea & vomiting due to malignant infiltration of stomach (AE, not ITPP-related): 0
  Nausea (AE, not ITPP-related): 0
  Palpitations (AE, not ITPP-related): 0
  Pyrexia (AE, not ITPP-related): 0
  Upper respiratory tract infection (AE, not ITPP-related): 0
Cohort 6, AE
  Hypercalcemia, CTCAE-Grade: 1
Cohort 6, AE, relationship to IMP: Possibly
  Hypomagnesemia, CTCAE-Grade: 1
Cohort 6, AE, relationship to IMP: Unlikely
  Neutropenia, CTCAE-Grade: 3
Cohort 7, 12,390 mg/m^2
  AV Block 1° (AE, not ITPP-related): 0
  Acute kidney injury grade 3 (AE, not ITPP-related): 0
  C. difficile enteritis (AE, not ITPP-related): 0
  Cholestasis (AE, not ITPP-related): 0
  Fatigue (AE, not ITPP-related): 0
  Hyperphosphatemia (TET): 0
  Hypertension (TET): 0
  Hypomagnesemia (TET): 0
  Hypophosphatemia (TET): 0
  Icterus due to malignant obstruction (AE, not ITPP-related): 0
  Lower gastrointestinal bleeding (AE, not ITPP-related): 0
  Nausea & vomiting due to malignant infiltration of stomach (AE, not ITPP-related): 0
  Nausea (AE, not ITPP-related): 0
  Neutropenia (AE, not ITPP-related): 0
  Palpitations (AE, not ITPP-related): 0
Cohort 7, AE
  Hypercalcemia, CTCAE-Grade: 1
[5]
  Hypokalemia, CTCAE-Grade: 1
  Upper respiratory tract infection, CTCAE-Grade: 2
[6]
  Ascites, CTCAE-Grade: 3
  Pyrexia, CTCAE-Grade: 1
Cohort 8, 14,500 mg/m^2
  Acute kidney injury grade 3 (AE, not ITPP-related): 0
  Ascites due to oncological progress (AE, not ITPP-related): 0
  C. difficile enteritis (AE, not ITPP-related): 0
  Cholestasis (AE, not ITPP-related): 0
  Fatigue (AE, not ITPP-related): 0
  Hypokalemia (AE, not ITPP-related): 0
  Hyponatremia (AE, not ITPP-related): 0
  Hypophosphatemia (TET): 0
  Icterus due to malignant obstruction (AE, not ITPP-related): 0
  Lower gastrointestinal bleeding (AE, not ITPP-related): 0
  Nausea & vomiting due to malignant infiltration of stomach (AE, not ITPP-related): 0
  Nausea (AE, not ITPP-related): 0
  Neutropenia (AE, not ITPP-related): 0
  Palpitations (AE, not ITPP-related): 0
  Pyrexia (AE, not ITPP-related): 0
  Upper respiratory tract infection (AE, not ITPP-related): 0
[7]
  Hyperphosphatemia, CTCAE-Grade: 1
  Hypomagnesemia, CTCAE-Grade: 1
Cohort 8, AE, relationship to IMP: Probably
  Hypertension, CTCAE-Grade: 1
Cohort 8, AE, relationship to IMP: Unrelated
  AV Block 1°, CTCAE-Grade: 1
Cohorts 1–7
  sTET or DLT: No significant treatment-emergent toxicity (sTET) or dose limiting toxicity (DLT) was encountered
During ITPP administration and 10-day follow-up
  Total number of adverse events (AE): 56
Grade I, three older male patients with pre-existing hypertension
  Increase in diastolic blood pressure: < 20 mmHg
Patient Nr. 27, cohort 8, single dose 14’500 mg/m^2
  Hypercalcemia of free ionized calcium, CTCAE grade (first sTET): grade II
Patient Nr. 28, cohort 8, single dose 14’500 mg/m^2
  Hypercalcemia of free ionized calcium, CTCAE grade (second sTET and DLT): grade II and IV
Single dose, intravenous over eight hours, nine infusions over three weeks
  Maximum tolerated dose (MTD): 12,390 mg/m^2
